Experimental findings from US10538512B2, “Aminoacylindazole immunomodulators for treatment of autoimmune diseases” (The Rockefeller University, priority 2016, dated 2020) are described below.

This test deals with T1, Human FXIIa (Homo sapiens, UniProt P00748).
T1 construct: active coagulation factor XII (FXIIa); purchased Enzyme Research Labs
T1 sequence (P00748 373-615 limits assumed): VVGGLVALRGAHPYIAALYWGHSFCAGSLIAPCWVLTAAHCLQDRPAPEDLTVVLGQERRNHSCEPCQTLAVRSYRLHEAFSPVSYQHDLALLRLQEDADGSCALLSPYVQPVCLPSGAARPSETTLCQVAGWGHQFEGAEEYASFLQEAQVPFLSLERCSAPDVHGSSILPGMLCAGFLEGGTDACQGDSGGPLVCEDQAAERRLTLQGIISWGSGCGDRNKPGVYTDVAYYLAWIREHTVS
T1 sequence (P00748 20-372 partner limits assumed): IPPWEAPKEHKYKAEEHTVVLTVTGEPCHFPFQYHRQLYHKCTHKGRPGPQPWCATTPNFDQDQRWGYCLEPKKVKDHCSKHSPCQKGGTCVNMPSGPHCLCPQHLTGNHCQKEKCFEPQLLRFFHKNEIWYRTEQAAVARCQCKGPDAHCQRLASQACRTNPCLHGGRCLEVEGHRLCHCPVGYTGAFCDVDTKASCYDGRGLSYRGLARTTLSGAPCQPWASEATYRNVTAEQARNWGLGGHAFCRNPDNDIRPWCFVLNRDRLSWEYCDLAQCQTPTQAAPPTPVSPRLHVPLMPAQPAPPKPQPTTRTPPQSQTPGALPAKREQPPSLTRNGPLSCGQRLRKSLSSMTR
In words: Factor XIIa (FXIIa) inhibitory activity, chromogenic substrate assay. The note with it: Human FXIIa 12.5 nM, Pefachrome XIIa 400 μM, 10 min preincubation. The test is classed as biochemical. The protocol:
Factor XIIa (FXIIa) Inhibitory Activity:
In a 96-well clear bottom plate, 80 μl of assay buffer was added to each well. Assay buffer consists of 0.5× Hank's Balanced Salt Solution (Invitrogen), buffered with 25 mM HEPES pH 7.4 (Invitrogen) and 0.5× Tris-buffered saline with Tween-20 0.05% (Santa Cruz Biotechnology). Test compounds were first dissolved in DMSO (Sigma) and then 4 μl were added to test wells containing assay buffer. Serial dilutions using an automated multi-channel pipette were used to generate a concentration range of approximately 1-100 μM. […] 80 μl of this enzyme solution was added to the assay wells. The enzyme/compound mixtures were incubated for 10 minutes at room temperature. Chromogenic substrate (Pefachrome XIIa; Enzyme Research Labs) was added to assay wells at a final concentration of 400 μM. The assay plate was spun for 1 minute at 1500 g and then read at 37° C. in a SpectraMax M2 plate reader (λ=405 nm). Activity was quantified as the rate of change in absorbance, which corresponds to the rate of substrate cleavage.

In the case of `Nc1c2c(nn1C(=O)[C@@H]1CCNc3ccc(F)cc31)C[C@@H](O)CC2` (single isomer, unassigned) [Example 182, ((6S*)-3-amino-6-hydroxy-4,5,6,7-tetrahydroindazol-2-yl)((4R*)-6-fluoro-1,2,3,4-tetrahydroquinolin-4-yl)methanone], the IC50 was > 100 µM. To `Nc1nn(C(=O)[C@H]2CCNc3ccc(F)cc32)c2c1C[C@@H](O)CC2` (single isomer, unassigned) [Example 135, ((5S*)-3-amino-5-hydroxy-4,5,6,7-tetrahydro-1H-indazol-1-yl)((4S*)-6-fluoro-1,2,3,4-tetrahydroquinolin-4-yl)methanone] belongs 24 µM; to `Cc1cccc2c1NCC[C@H]2C(=O)n1nc2c(c1N)CC[C@@H](O)C2` (single isomer, unassigned) [Example 200, ((6R*)-3-amino-6-hydroxy-4,5,6,7-tetrahydroindazol-2-yl)((4R*)-8-methyl-1,2,3,4-tetrahydroquinolin-4-yl)methanone], 3.3 µM. Under `Nc1c2c(nn1C(=O)C1CCCc3[nH]c(Cl)cc31)CCCC2` (single isomer, unassigned) [Example 106, (S*)-(3-amino-4,5,6,7-tetrahydro-2H-indazol-2-yl)(2-chloro-4,5,6,7-tetrahydro-1H-indol-4-yl)methanone] stands 0.04 µM; under `Nc1nn(C(=O)C2CCNc3cc(Cl)ccc32)c2c1CCCC2` (centres unmarked) [Example 104, (3-amino-4,5,6,7-tetrahydroindazol-1-yl)(7-chloro-1,2,3,4-tetrahydroquinolin-4-yl)methanone], > 50 µM; under `COc1ccc2c(c1)NCCC2C(=O)n1nc(N)c2c1CCCC2` (centres unmarked) [Example 111, (3-amino-4,5,6,7-tetrahydroindazol-1-yl)(7-methoxy-1,2,3,4-tetrahydroquinolin-4-yl)methanone], > 100 µM. To `Nc1c2c(nn1C(=O)[C@@H]1CCNc3ccc(F)cc31)CC[C@@H](F)C2` (single isomer, unassigned) [Example 138, ((5R*)-3-amino-5-fluoro-4,5,6,7-tetrahydroindazol-2-yl)((4R*)-6-fluoro-1,2,3,4-tetrahydroquinolin-4-yl)methanone] belongs 16 µM; to `Nc1c2c(nn1C(=O)c1cccc3ccccc13)CCCC2` [Example 39, (3-amino-4,5,6,7-tetrahydroindazol-2-yl)(naphthalen-1-yl)methanone], 4 µM. The compound `Cc1ccc2c(c1)N(C)CCC2C(=O)n1nc2c(c1N)CCCC2` (centres unmarked) [Example 163] showed an IC50 of 1.5 µM. To `Nc1c2c(nn1C(=O)[C@@H]1CCNc3ccc(Cl)cc31)CC[C@H](O)C2` (single isomer, unassigned) [Example 144, ((5S*)-3-amino-5-hydroxy-4,5,6,7-tetrahydroindazol-2-yl)((4R*)-6-chloro-1,2,3,4-tetrahydroquinolin-4-yl)methanone] belongs 9 µM; to `Nc1nn(C(=O)[C@H]2CCNc3ccc(Cl)cc32)c2c1C[C@@H](O)CC2` (single isomer, unassigned) [Example 146, ((5S*)-3-amino-5-hydroxy-4,5,6,7-tetrahydroindazol-1-yl)((4S*)-6-chloro-1,2,3,4-tetrahydroquinolin-4-yl)methanone], > 80 µM.

As to `Nc1c2c(nn1C(=O)[C@H]1CCNc3ccc(F)cc31)CC[C@H](O)C2` (single isomer, unassigned) [Example 133, ((5S*)-3-amino-5-hydroxy-4,5,6,7-tetrahydroindazol-2-yl)((4S*)-6-fluoro-1,2,3,4-tetrahydroquinolin-4-yl)methanone], inhibition was half-maximal at 33 µM (IC50). This counts as double-digit micromolar. To `Nc1nn(C(=O)C2CCNc3ccc(F)cc32)c2c1CC(NC(=O)OCc1ccccc1)CC2` (single isomer, unassigned) [Example 191, benzyl N-[(5S*)-3-amino-1-[(6-fluoro-1,2,3,4-tetrahydroquinolin-4-yl)carbonyl]-4,5,6,7-tetrahydro-1H-indazol-5-yl]carbamate] belongs > 55 µM; to `Cn1c(Cl)cc2c1CCCC2C(=O)n1nc2c(c1N)CCCC2` (centres unmarked) [Example 112, (3-amino-4,5,6,7-tetrahydroindazol-2-yl)(2-chloro-1-methyl-4,5,6,7-tetrahydro-1H-indol-4-yl)methanone], 0.18 µM. Under `Cc1cccc2c1NCC[C@@H]2C(=O)n1nc2c(c1N)CC[C@@H](O)C2` (single isomer, unassigned) [Example 199, ((6R*)-3-amino-6-hydroxy-4,5,6,7-tetrahydroindazol-2-yl)((4S*)-8-methyl-1,2,3,4-tetrahydroquinolin-4-yl)methanone] stands 0.04 µM; under `Nc1c2c(nn1C(=O)[C@H]1CCNc3c(Cl)cccc31)CC[C@H](N)C2` (relative stereo) [Example 215, ((4S*)-8-chloro-1,2,3,4-tetrahydroquinolin-4-yl)((5S*)-3,5-diamino-4,5,6,7-tetrahydroindazol-2-yl)methanone], 0.07 µM; under `Nc1c2c(nn1C(=O)C1CCNc3cc(Cl)ccc31)CCCC2` (centres unmarked) [Example 103, (3-amino-4,5,6,7-tetrahydroindazol-2-yl)(7-chloro-1,2,3,4-tetrahydroquinolin-4-yl)methanone], 0.7 µM. Under `Cc1[nH]c2ccccc2c1C(=O)n1nc2c(c1N)CCCC2` [Example 44, (3-amino-4,5,6,7-tetrahydroindazol-2-yl)(2-methyl-1H-indol-3-yl)methanone] stands 11 µM; under `Cc1cc2c(C(=O)n3ncc4c3CCCC4)cccc2[nH]1` [Example 160], 6 µM. In turn, `Nc1c2c(nn1C(=O)c1ccnc3cc(Cl)ccc13)CCCC2` [Example 123, (3-amino-4,5,6,7-tetrahydro-2H-indazol-2-yl)(7-chloroquinolin-4-yl)methanone] registered an IC50 of 2.5 µM. Under `Nc1nn(C(=O)C2CCNc3ccc(F)cc32)c2c1CC(F)(F)CC2` (centres unmarked) [Example 175, (3-amino-5,5-difluoro-4,5,6,7-tetrahydroindazol-1-yl)(6-fluoro-1,2,3,4-tetrahydroquinolin-4-yl)methanone] stands 16 µM; under `Cc1cccc2c1NCCC2C(=O)n1nc(N)c2c1CCC=C2` (centres unmarked) [Example 196, (3-amino-6,7-dihydroindazol-1-yl)(8-methyl-1,2,3,4-tetrahydroquinolin-4-yl)methanone], 7.5 µM. Under `CN1CCC(C(=O)n2nc3c(c2N)CCCC3)c2cccnc21` (centres unmarked) [Example 87, (3-amino-4,5,6,7-tetrahydroindazol-2-yl)(1-methyl-1,2,3,4-tetrahydro-1,8-naphthyridin-4-yl)methanone] stands 5 µM; under `CO[C@H]1CCc2nn(C(=O)[C@@H]3CCNc4ccc(F)cc43)c(N)c2C1` (single isomer, unassigned) [Example 176, ((5S*)-3-amino-5-methoxy-4,5,6,7-tetrahydroindazol-2-yl)((4R*)-6-fluoro-1,2,3,4-tetrahydroquinolin-4-yl)methanone], > 100 µM. Under `Nc1nn(C(=O)[C@H]2CCNc3c(Cl)cccc32)c2c1CC[C@@H](O)C2` (single isomer, unassigned) [Example 211, ((6R*)-3-amino-6-hydroxy-4,5,6,7-tetrahydroindazol-1-yl)((4S*)-8-chloro-1,2,3,4-tetrahydroquinolin-4-yl)methanone] stands > 100 µM; under `Nc1nn(C(=O)[C@@H]2CCNc3ccc(F)cc32)c2c1C[C@H](O)CC2` (relative stereo) [Example 132, ((5R*)-3-amino-5-hydroxy-4,5,6,7-tetrahydro-2H-indazol-1-yl)((4R*)-6-fluoro-1,2,3,4-tetrahydroquinolin-4-yl)methanone], > 90 µM; under `Nc1c2c(nn1C(=O)[C@@H]1CCNc3ccc(F)cc31)CC[C@@H](N)C2` (stereo in doubt) [Example 188, ((5R*)-3,5-diamino-4,5,6,7-tetrahydroindazol-2-yl)((4R*)-6-fluoro-1,2,3,4-tetrahydroquinolin-4-yl)methanone], > 80 µM. In the case of `Nc1c2c(nn1C(=O)[C@H]1CCNc3ccc(F)cc31)CC[C@@H](N)C2` (stereo in doubt) [Example 189, ((5R*)-3,5-diamino-4,5,6,7-tetrahydroindazol-2-yl)((4S*)-6-fluoro-1,2,3,4-tetrahydroquinolin-4-yl)methanone], half-maximal inhibition (IC50) required 3 µM. To `Cc1cc2c(C(=O)n3nc4c(c3N)CC(OCc3ccccc3)CC4)cccc2[nH]1` (centres unmarked) [Example 117, (3-amino-5-(benzyloxy)-4,5,6,7-tetrahydroindazol-2-yl)(2-methyl-1H-indol-4-yl)methanone] belongs 0.03 µM.
